Measurements published in PubChem BioAssay (NCI).
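Cells were grown in 96-well plates and exposed to each compound for 48 hours at five concentrations; endpoints were interpolated linearly between bracketing concentrations, or set to the highest concentration if not reached. GI50 = concentration required for 50% inhibition of growth. The concentration for full growth arrest is given as TGI.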

Key:
Experiment in all cases: NCI-60 cell line screen, 48 h; in the data active = GI50 below about 0.43 µM; inactive = the rest
[1] = tested on: 786-0 renal
[2] = tested on: A498 renal
[3] = tested on: A549 NSCLC
[4] = tested on: ACHN renal
[5] = tested on: BT-549 breast
[6] = tested on: CAKI-1 renal
[7] = tested on: CCRF-CEM leukemia
[8] = tested on: COLO 205 colon
[9] = tested on: DU-145 prostate
[10] = tested on: EKVX NSCLC
[11] = tested on: HCC-2998 colon
[12] = tested on: HCT-116 colon
[13] = tested on: HCT-15 colon
[14] = tested on: HL-60(TB) leukemia
[15] = tested on: HOP-62 NSCLC
[16] = tested on: HOP-92 NSCLC
[17] = tested on: HS 578T breast
[18] = tested on: HT29 colon
[19] = tested on: IGROV1 ovarian
[20] = tested on: K-562 leukemia
[21] = tested on: KM12 colon
[22] = tested on: LOX IMVI melanoma
[23] = tested on: M14 melanoma
[24] = tested on: MALME-3M melanoma
[25] = tested on: MCF7 breast
[26] = tested on: MDA-MB-231 breast
[27] = tested on: MDA-MB-435
[28] = tested on: MOLT-4 leukemia
[29] = tested on: NCI-H226 lung
[30] = tested on: NCI-H23 lung
[31] = tested on: NCI-H460 lung
[32] = tested on: NCI-H522 lung
[33] = tested on: NCI/ADR-RES ovarian
[34] = tested on: OVCAR-3 ovarian
[35] = tested on: OVCAR-4 ovarian
[36] = tested on: OVCAR-5 ovarian
[37] = tested on: OVCAR-8 ovarian
[38] = tested on: PC-3 prostate
[39] = tested on: RPMI-8226 leukemia
[40] = tested on: RXF 393 renal
[41] = tested on: SF-268 CNS
[42] = tested on: SF-295 CNS
[43] = tested on: SF-539 CNS
[44] = tested on: SK-MEL-2 melanoma
[45] = tested on: SK-MEL-28 melanoma
[46] = tested on: SK-MEL-5 melanoma
[47] = tested on: SK-OV-3 ovarian
[48] = tested on: SN12C renal
[49] = tested on: SNB-19 CNS
[50] = tested on: SNB-75 CNS
[51] = tested on: SR leukemia
[52] = tested on: SW-620 colon
[53] = tested on: T-47D breast
[54] = tested on: TK-10 renal
[55] = tested on: U251 CNS
[56] = tested on: UACC-257 melanoma
[57] = tested on: UACC-62 melanoma

NC(N)=NCCN1CCCCCc2ccccc21
> 10 µM: TGI [1] | TGI [2] | TGI [3] | TGI [4] | TGI [5] | TGI [6] | TGI [7] | TGI [8] | TGI [9] | TGI [10] | TGI [11] | TGI [12] | TGI [13] | TGI [14] | TGI [15] | TGI [16] | TGI [17] | TGI [18] | TGI [19] | TGI [20] | TGI [21] | TGI [22] | TGI [23] | TGI [24] | TGI [25] | TGI [26] | TGI [27] | TGI [28] | TGI [29] | TGI [30] | TGI [31] | TGI [32] | TGI [33] | TGI [34] | TGI [35] | TGI [36] | TGI [37] | TGI [38] | TGI [39] | TGI [40] | TGI [41] | TGI [42] | TGI [43] | TGI [44] | TGI [45] | TGI [46] | TGI [47] | TGI [48] | TGI [49] | TGI [50] | TGI [51] | TGI [52] | TGI [53] | TGI [54] | TGI [55] | TGI [56] | TGI [57]

COc1cc2c(cc1OCCCCCN1CCN(CCCCCOc3cc4c(cc3OC)C(=O)C3CCC[C@H]3C=N4)CC1)N=C[C@@H]1CCCC1C2=O (some centres not stated)
> 74.3 µM: TGI [29]
> 46 µM: TGI [56]
47.7 µM: TGI [24]
> 68.7 µM: TGI [17]
> 94.4 µM: TGI [50]
80.9 µM: TGI [23]
7.11 µM: TGI [40]
11.3 µM: TGI [8]
5.26 µM: TGI [44]
28.4 µM: TGI [20]
> 51.8 µM: TGI [3]
> 93.4 µM: TGI [34]
7.87 µM: TGI [57]
7 µM: TGI [28]
14.6 µM: TGI [54]
21.6 µM: TGI [46]
7.15 µM: TGI [14]
4.64 µM: TGI [1]
6.02 µM: TGI [11]
> 79 µM: TGI [43]
> 54.1 µM: TGI [36]
> 21.1 µM: TGI [30]
39.9 µM: TGI [27]
> 37 µM: TGI [37]
> 86.8 µM: TGI [5]
> 81.4 µM: TGI [6]
> 48.7 µM: TGI [7]
inactive: GI50 [1] 1.51 µM | GI50 [2] 2.07 µM | GI50 [3] 10.7 µM | GI50 [4] 18.9 µM | GI50 [5] 10.9 µM | GI50 [6] 27.5 µM | GI50 [7] 3.06 µM | GI50 [8] 2.67 µM | GI50 [9] 12.9 µM | GI50 [10] 41.3 µM | GI50 [11] 2.18 µM | GI50 [13] 52.9 µM | GI50 [14] 2.83 µM | GI50 [15] > 100 µM | GI50 [16] 3.22 µM | GI50 [17] 5.63 µM | GI50 [18] 9.47 µM | GI50 [19] 3.88 µM | GI50 [20] 6.51 µM | GI50 [21] 13.9 µM | GI50 [22] 3.07 µM | GI50 [23] 17.5 µM | GI50 [24] 23 µM | GI50 [25] 2.72 µM | GI50 [26] 3.84 µM | GI50 [27] 5.81 µM | GI50 [28] 2.55 µM | GI50 [29] 4.8 µM | GI50 [30] 3.72 µM | GI50 [31] 3.38 µM | GI50 [32] 1.76 µM | GI50 [33] > 100 µM | GI50 [34] 10.1 µM | GI50 [35] 42 µM | GI50 [36] 5.52 µM | GI50 [37] 7.89 µM | GI50 [38] 3.16 µM | GI50 [39] 1.84 µM | GI50 [40] 2.23 µM | GI50 [41] 3.51 µM | GI50 [42] 6.19 µM | GI50 [43] 9.82 µM | GI50 [44] 2.2 µM | GI50 [45] 19.4 µM | GI50 [46] 3.34 µM | GI50 [47] 43.2 µM | GI50 [49] > 39.4 µM | GI50 [50] 16.1 µM | GI50 [51] 2.97 µM | GI50 [52] 2.51 µM | GI50 [53] 6.89 µM | GI50 [54] 5.05 µM | GI50 [55] 3.74 µM | GI50 [56] 9.73 µM | GI50 [57] 2.35 µM
> 94.2 µM: TGI [31]
5.48 µM: TGI [2]
46.6 µM: TGI [52]
> 100 µM: TGI [4] | TGI [9] | TGI [10] | TGI [13] | TGI [15] | TGI [18] | TGI [21] | TGI [22] | TGI [25] | TGI [26] | TGI [32] | TGI [33] | TGI [35] | TGI [38] | TGI [41] | TGI [42] | TGI [45] | TGI [47] | TGI [49] | TGI [53] | TGI [55]
11.9 µM: TGI [39]
> 42.6 µM: TGI [16]
39.6 µM: TGI [51]
> 25 µM: TGI [19]
